The test deals with HCV GT1b (Con1, HCV-1b) replicon. Kind of test: HCV GT1b replicon 2-drug combination assay (firefly luciferase, MacSynergy II). On the set-up: Synergy volume / Antagonism volume: unit not given here. It is filed as cell-based, Hepatitis C virus. As to conditions: for Antagonism volume / Synergy volume: 3 days, 0.125-8x EC50. The method, then: Materials: Cells—The HCV GT1b (Con1, HCV-1b) replicon cells were generated and provided by WuXi AppTec. The HCV-1b replicon cells are Huh7 cells stably transfected with the HCV GT1b replicon containing the HCV subgenome, resistance selection gene NEO and reporter gene firefly luciferase.
Software—HCV replicon data was analyzed using MacSynergy™ II software.
Methods: This study was to assess combination effects of the Compound A with other HCV antivirals on HCV replicon replication in the HCV GT1b replicon assay.
The 2-drug combination experiment was designed using a checkboard cross pattern of 7 drug concentrations of each agent, including each agent alone, in triplicate, plated with the Automated Liquid Workstation (Labcyte, Echo555). The concentrations of the test compounds were 0.125, 0.25, 0.5, 1, 2, 4, 8× EC50 values. The EC50 values of the test compounds were determined in a separate HCV GT1b replicon assay. The regimens of the compound combinations are listed in Table 1—where each regimen includes Compound A as the first compound. The final concentration of DMSO in the cell culture medium was 0.5%.
The HCV-1b cells were seeded at a density of 8,000 cells per well in 96-well plates and cultured in DMEM containing 10% FBS at 5% CO2 and 37° C. The replicon cells were treated with the compounds for 3 days.
The antiviral activity of the compounds was determined by monitoring activity of the replicon reporter firefly luciferase using Bright Glo in accordance with the protocol provided by the supplier. The combination indices were calculated using the MacSynergy™ II software. A positive combination index value indicates synergism, and a negative combination index value indicates antagonism.
On the technique in general: A replicon is a self-replicating genome or part of one, used to study replication in cells.

[1] abbreviates: 2nd inhibitor (NS3 protease inhibitor table, incl. ribavirin) in combination with Compound A.
[2] abbreviates: 2nd inhibitor (NS5A inhibitor) in combination with Compound A.
The mark [3] stands for this setting: 2nd inhibitor (NS5B nucleoside inhibitor) in combination with Compound A.

In the case of `COc1ccc2c(O[C@@H]3C[C@H]4C(=O)N[C@]5(C(=O)NS(=O)(=O)C6CC6)C[C@H]5/C=C\CCCCN(C)C(=O)[C@@H]4C3)cc(-c3nc(C(C)C)cs3)nc2c1C` [Simprevir, Simeprevir], under setting [1], the Combination regimen effect entry is listed as “Additive”, the Antagonism volume turned out to be 0.00 and the Synergy volume was determined as 13.39.

For `COC(=O)N[C@H](C(=O)N1CCC[C@H]1c1nc(-c2ccc(-c3ccc(-c4c[nH]c([C@@H]5CCCN5C(=O)[C@@H](NC(=O)OC)C(C)C)n4)cc3)cc2)c[nH]1)C(C)C` [Daclatasvir], under setting [2], the Antagonism volume is recorded as −3.05 and the Synergy volume is on record as 33.47.

On to `COC(=O)N[C@H](C(=O)N1CCC[C@H]1c1nc2cc([C@H]3CC[C@H](c4cc5nc([C@@H]6CCCN6C(=O)[C@@H](NC(=O)OC)[C@@H](C)OC)[nH]c5cc4F)N3c3cc(F)c(N4CCC(c5ccc(F)cc5)CC4)c(F)c3)c(F)cc2[nH]1)[C@@H](C)OC` [Pibrentasvir], for which, under setting [2], the Combination regimen effect entry is “Additive”, the Antagonism volume is listed as −24.59 and the Synergy volume is reported as 5.7.

Turning to `COC(=O)N[C@H](C(=O)N1CC2(CC2)C[C@H]1c1nc(-c2ccc3c(c2)C(F)(F)c2cc(-c4ccc5[nH]c([C@@H]6[C@H]7CC[C@H](C7)N6C(=O)[C@@H](NC(=O)OC)C(C)C)nc5c4)ccc2-3)c[nH]1)C(C)C` [Ledipasvir], under setting [2], the Combination regimen effect result is “Minor synergy”, the Antagonism volume is −1.08 and the Synergy volume amounted to 38.55.

Regarding `CC(C)OC(=O)[C@@H](C)NP(=O)(OC[C@@H]1O[C@H](n2ccc(NO)nc2=O)[C@@](C)(O)[C@H]1O)Oc1ccccc1` (stereo partly drawn) [Compound B], under setting [3], the Combination regimen effect result is “Additive”, the Antagonism volume stood at 0.00 and the Synergy volume was 3.30.

With `NC(=O)c1ncn([C@@H]2O[C@H](CO)[C@@H](O)[C@H]2O)n1` [Ribavirin], under setting [1], the Combination regimen effect result is given as “Additive”, the Antagonism volume is reported as −9.76 and the Synergy volume is 0.24.

On to `COC(=O)N[C@H](C(=O)N1C[C@H](SC)C[C@@H]1c1ncc(-c2ccc(-c3ccc(-c4[nH]c([C@@H]5CCCN5C(=O)[C@@H](NC(=O)OC)c5ccccc5)nc4Cl)cc3)cc2)[nH]1)c1ccccc1` [Compound C], for which, under setting [2], the Combination regimen effect result is reported as “Additive”, the Antagonism volume is 0 and the Synergy volume is on record as 3.57.

As to `C=C[C@@H]1C[C@]1(NC(=O)[C@@H]1C[C@@H](Oc2ncc(OC)c3ccc(Cl)cc23)CN1C(=O)[C@@H](NC(=O)OC(C)(C)C)C(C)(C)C)C(=O)NS(=O)(=O)C1CC1` [Asunaprevir], under setting [1], the Combination regimen effect result is listed as “Additive”, the Antagonism volume was −1.32 and the Synergy volume was 4.9.

`CC(C)(C)[C@@H]1NC(=O)O[C@@H]2CCC[C@H]2OC/C=C/C(F)(F)c2nc3ccccc3nc2O[C@@H]2C[C@@H](C(=O)N[C@]3(C(=O)NS(=O)(=O)C4(C)CC4)C[C@H]3C(F)F)N(C2)C1=O` [Glecaprevir]: under setting [1], the Combination regimen effect result is given as “Minor synergism”, the Antagonism volume was 0.00 and the Synergy volume came out at 47.37.

As for `CNC(=O)c1c(-c2ccc(F)cc2)oc2cc(N(CCCCCOCc3ccc(C(=O)O)cc3)S(C)(=O)=O)c(C3CC3)cc12` [Compound A], under “with HCV NS5B nucleoside inhibitors, NS5A inhibitors, NS3 protease inhibitors, NS3 helicase inhibitors, and ribavirin”, the Combination effect result was “either additive or synergistic effect”.

Regarding `CC(C)OC(=O)[C@H](C)N[P@](=O)(OC[C@H]1O[C@@H](n2ccc(=O)[nH]c2=O)[C@](C)(F)[C@@H]1O)Oc1ccccc1` [Sofosbuvir], under setting [3], the Combination regimen effect result is reported as “Additive”, the Antagonism volume was 0.00 and the Synergy volume came out at 9.47.

Consider `COC[C@H]1C[C@@H](c2nc(-c3ccc4c(c3)COc3cc5c(ccc6nc([C@@H]7CC[C@H](C)N7C(=O)[C@@H](NC(=O)OC)C(C)C)[nH]c65)cc3-4)c[nH]2)N(C(=O)[C@H](NC(=O)OC)c2ccccc2)C1` [Velpatasvir], for which, under setting [2], the Combination regimen effect entry was “Additive”, the Antagonism volume is recorded as −7.92 and the Synergy volume came to 0.76.
